Experimental data from patent US20220401381A1, “PERIPHERALLY ACTING CANNABIDIOL (CBD)-CONTAINING COMPOUNDS AND USES THEREOF FOR ENHANCING FEMALE SEXUAL FUNCTION OR TREATING FEMALE SEXUAL DISORDERS” (Vella Bioscience, Inc., priority 2019, published 2022).
Entries after “also recorded” stand apart in the source; their conditions may differ.

How the values were obtained:
[1] = subcutaneous injection 45 minutes prior to sexual activity; cited from earlier work
[2] = test system: rat vaginal smooth muscle tissue (intact/sham rats); test: EFS-induced contraction of vaginal strips from intact/sham rats, isolated organ bath, isometric tension
Excerpt: (§1) The following in vitro methodology was utilized to examine the concentration-dependent response of rat vaginal tissue, both proximal and distal, to CBD following contraction by electrical field stimulation (similar to efferent neurostimulation in vivo)
(§2) Female rats either intact (n=6) or bilaterally oophorectomized (OVX) (n=6 rats); the animals were euthanized 6 weeks post OVX and vagina dissected. Then, the vagina was cut into 2 halves, proximal and distal, and 4 strips max per region cut in circular direction were prepared and mounted as shown in FIG. 1.
(§3) The strips were excised from the tissue samples and connected to force transducers for isometric tension recording. Organ baths were filled with Krebs buffer maintained at 37° C. and bubbled with 95% O2 and 5% CO2, pH 7.4.
(§4) Female rats without (n=6) prior bilateral oophorectomies were euthanized and the proximal and distal vaginal tissue was harvested and suspended in a classic organ bath infused at a physiological temperature, pH, and oxygen level. […] This was also true regardless of whether the tissue was from the proximal or distal vaginal tissue (FIG. 2(A-E)).

[3] = test system: rat vaginal smooth muscle tissue (OVX rats); test: EFS-induced contraction of vaginal strips from oophorectomized (OVX) rats, isolated organ bath, isometric tension
Excerpt: as §1, §2, §3
as §4, with “with” for “without”, “3(A-E)).” for “2(A-E)).”

Row | SMILES | side-effect: nausea, incidence [1] | relaxation (inhibition of EFS-induced contraction) of vaginal strips ([2]; intact/sham (non-oophorectomized) rats, proximal or distal tissue, CBD 1, 10 and 100 μg/ml, EFS 1 Hz to 48 Hz, vs vehicle) | relaxant effect on distal vaginal smooth muscle tissue ([2]; intact/sham rat, distal, FIG. 4B) | relaxant effect on proximal vaginal smooth muscle tissue ([2]; intact/sham rat, proximal, FIG. 4A) | relaxant effect on distal vaginal smooth muscle tissue ([3]; OVX rat, distal, FIG. 5B) | relaxant effect on proximal vaginal smooth muscle tissue ([3]; OVX rat, proximal, FIG. 5A) | relaxation (inhibition of EFS-induced contraction) of vaginal strips ([3]; oophorectomized (OVX) rats, proximal or distal tissue, CBD 1, 10 and 100 μg/ml, EFS 1 Hz to 48 Hz, vs vehicle)
1 | CCCC[C@H](NC(C)=O)C(=O)N[C@H]1CC(=O)NCCCC[C@@H](C(=O)O)NC(=O)[C@H](Cc2c[nH]c3ccccc23)NC(=O)[C@H](CCCN=C(N)N)NC(=O)[C@@H](Cc2ccccc2)NC(=O)[C@H](Cc2cnc[nH]2)NC1=O [bremelanotide] | 40% | – | – | – | – | – | –
2 | C=C(C)[C@@H]1CCC(C)=C[C@H]1c1c(O)cc(CCCCC)cc1O [CBD, (−)-trans-cannabidiol] | – | dramatic and significant dose-response relaxation; also recorded: significant relaxant effect | statistically significant, unexpected, peripheral, dose-dependent pharmacological relaxant effect | statistically significant, unexpected, peripheral, dose-dependent pharmacological relaxant effect | statistically significant, unexpected, peripheral, dose-dependent pharmacological relaxant effect | statistically significant, unexpected, peripheral, dose-dependent pharmacological relaxant effect | dramatic and significant dose-response relaxation; also recorded: significant relaxant effect
